Read-outs that look alike come from different tables or passages of the source.
Assays:
[1] = In vitro unenhanced skin flux, Franz diffusion cells; format: in vitro ADME, human; settings: 168 hour period, saturated solution in 80/20% ethanol/water, no enhancers
Experimental: All in vitro skin permeation studies are conducted using the PermeGear Membrane Transport System. […] Skin flux studies are run for a period of 168 hours. […] The receiver compartment is refilled with fresh receiver medium.

[2] = cited from earlier work
carboxylesterases = settings: cited from earlier work
[3] = headache, diarrhea, pain in the jaw, nausea and myalgia; cited from earlier work
[4] = Saturation concentration of the drug in the receptor medium; format: physicochemical; settings: pH 7.4 water with 0.44 mg/ml OLETH 20
[5] = Formulation B enhancer system, 2, 4, 8, 12 and 24 hour time points (FIG. 1)
Experimental: One skin donor and three diffusion cells per formulation were used in these in vitro skin permeation experiments. Split thickness dermatomed (approximately at 375 μm) human cadaver skin was used to determine the permeation rate of the selexipag metabolite ACT 333679 in vitro. All in vitro skin permeation studies were conducted using the PermeGear Membrane Transport System (PermeGear, Inc., Hellertown, Pa.). Each Membrane Transport System consists of vertical, jacketed (37° C.±0.5° C.) Franz diffusion cells with magnetic stirrer and 1.7 cm^2 diffusion area.
Skin flux studies were run for a period of 48 hours. At predetermined intervals (3, 24 and 48 hours) after starting the experiment, the entire contents of the receiver compartment were collected for determination of the ACT 333679 concentration by HPLC. The receiver compartment was refilled with fresh receiver medium. The receiver medium was pH 7.4 water with 0.44 mg/ml of OLETH 20 (polyethylene glycol ether of oleyl alcohol) with the saturation concentration of the drug in the receptor medium being 0.23 mg/ml or 2 mg total in the receptor phase. […]
One skin donor and three diffusion cells per formulation were used in these in vitro skin permeation experiments. […] Samples in the receptor phase were obtained at the 2, 4, 8, 12 and 24 hour intervals and the amount of selexipag or ACT333679 was determined by HPLC.

prostacyclin IP receptor = prostacyclin IP receptor (Homo sapiens, UniProt P43119); settings: ACT 333679 versus selexipag; cited from earlier work
[6] = rat; cited from earlier work

Sequence of prostacyclin IP receptor (P43119 whole entry): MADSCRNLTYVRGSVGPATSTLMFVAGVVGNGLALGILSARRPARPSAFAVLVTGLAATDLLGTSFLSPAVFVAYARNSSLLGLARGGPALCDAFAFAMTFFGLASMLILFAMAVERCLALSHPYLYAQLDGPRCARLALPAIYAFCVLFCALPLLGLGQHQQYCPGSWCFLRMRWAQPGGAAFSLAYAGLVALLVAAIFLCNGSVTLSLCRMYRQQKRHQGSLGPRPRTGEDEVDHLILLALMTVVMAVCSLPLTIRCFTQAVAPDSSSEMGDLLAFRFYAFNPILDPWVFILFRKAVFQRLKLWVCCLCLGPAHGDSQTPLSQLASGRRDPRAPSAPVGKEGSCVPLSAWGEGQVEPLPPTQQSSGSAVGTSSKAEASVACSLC

SMILES: CC(C)N(CCCCOCC(=O)NS(C)(=O)=O)c1cnc(-c2ccccc2)c(-c2ccccc2)n1 [selexipag]
- average flux [1]: 1.2 micrograms per square centimeter per hour
- absorption ([2]; oral): ~60%
- metabolism of selexipag to ACT 333679 (carboxylesterases; carboxylases present in human plasma): do not metabolize selexipag to ACT 333679
- metabolism of selexipag to ACT 333679 (carboxylesterases; human hepatic microsomes): metabolized to ACT 333679 from hepatic microsomes
- difference in incidence of side effects between selexipag and placebo [3]: higher than 10%

SMILES: CC(C)N(CCCCOCC(=O)O)c1cnc(-c2ccccc2)c(-c2ccccc2)n1 [ACT 333679]
- average flux [1]: 2.9 micrograms per square centimeter per hour
- saturation amount, total in the receptor phase [4]: 2 mg
- saturation concentration of the drug in the receptor medium [4]: 0.23 mg/mL
- permeation through skin compared with selexipag [5]: higher than that of selexipag
- potency relative to selexipag (prostacyclin IP receptor): at least 16 times
- oral bioavailability [6]: 57%
- effect of presence of food on AUC ([2]; presence of food): 27%

— patent US20190099383A1, “Transdermal Delivery of Selexipag Metabolite” (Samos Pharmaceuticals, Inc., priority 2017, published 2019)
